Reference: the NIST ThermoML archive (doi:10.1021/je100720x)

Assay: osmotic coefficient (dimensionless); mn = molality of the nth substance listed, in mol/kg
Conditions: 298.15 K, Liquid, isopiestic method

CCn1cc[n+](C)c1.[Br-] [1-ethyl-3-methylimidazolium bromide] + O
Conditions | osmotic coefficient
m1 = 0.5514 | 0.811
m1 = 0.6588 | 0.801
m1 = 0.6883 | 0.799
m1 = 0.7764 | 0.795
m1 = 0.9367 | 0.787
m1 = 1.04 | 0.786
m1 = 1.943 | 0.763
m1 = 2.308 | 0.757
m1 = 2.542 | 0.759
m1 = 3.189 | 0.763
m1 = 4.359 | 0.786
m1 = 5.41 | 0.821
m1 = 7.17 | 0.883

O=P([O-])([O-])O.[K+].[K+] [dipotassium hydrogen phosphate] + O
Conditions | osmotic coefficient
m1 = 0.6496 | 0.711
m1 = 0.7592 | 0.704
m1 = 1.112 | 0.69
m1 = 1.251 | 0.69
m1 = 1.604 | 0.689
m1 = 1.712 | 0.694
m1 = 1.965 | 0.696
m1 = 2.163 | 0.709

O=P([O-])(O)O.[K+] [monopotassium phosphate] + O
Conditions | osmotic coefficient
m1 = 0.6269 | 0.8
m1 = 0.9843 | 0.744
m1 = 1.113 | 0.731
m1 = 1.228 | 0.717
m1 = 1.27 | 0.715
m1 = 1.508 | 0.696
m1 = 1.707 | 0.68

O=P([O-])([O-])[O-].[K+].[K+].[K+] [tripotassium phosphate] + O
Conditions | osmotic coefficient
m1 = 0.4308 | 0.694
m1 = 0.5142 | 0.698
m1 = 0.6347 | 0.705
m1 = 0.7575 | 0.708
m1 = 0.8132 | 0.716
m1 = 1.002 | 0.744
m1 = 1.012 | 0.745
m1 = 1.241 | 0.778
m1 = 1.695 | 0.866
m1 = 1.83 | 0.893
